Data on 13 molecules can be found in PubChem BioAssay (NCI).

Among the test systems are SK-MEL-2 melanoma; CCRF-CEM leukemia; DU-145 prostate; LOX IMVI melanoma; IGROV1 ovarian; ACHN renal; SF-295 CNS; HOP-92 NSCLC; OVCAR-5 ovarian; UACC-257 melanoma.
Common to all, as to test: NCI-60 cell line screen, 48 h

The structures appear in SMILES notation.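 In this assay, cells in 96-well plates receive the compound at five concentrations for 48 hours. Endpoints are linearly interpolated between the surrounding concentrations. TGI: total growth inhibition.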

As to `COc1cc(C)cc2c1c(=O)c1ccccc1n2C`, the TGI in the assay with SK-MEL-2 melanoma is 49.9 µM; in the assay with CCRF-CEM leukemia, 68.5 µM; in the assay on DU-145 prostate, more than 100 µM; in the assay on LOX IMVI melanoma, 53.6 µM; in the assay on IGROV1 ovarian it was more than 100 µM; in the assay on ACHN renal, more than 100 µM. Also, the TGI with SF-295 CNS is 45.3 µM; with HOP-92 NSCLC it was 91.8 µM; in the assay with OVCAR-5 ovarian, more than 100 µM; with UACC-257 melanoma it was more than 100 µM.
Consider `O=C(N/N=C/c1ccc([N+](=O)[O-])o1)c1ccc(C(=O)N/N=C/c2ccc([N+](=O)[O-])o2)cc1`, for which the TGI in the assay on SK-MEL-2 melanoma is more than 100 µM; in the assay on CCRF-CEM leukemia, 42.4 µM; in the assay with DU-145 prostate, more than 100 µM; with LOX IMVI melanoma, 94.9 µM; with IGROV1 ovarian, more than 100 µM; with ACHN renal it was more than 100 µM. For the same molecule, the TGI with SF-295 CNS, with HOP-92 NSCLC and with OVCAR-5 ovarian was more than 100 µM each time.
As for `Cc1nc2c(nc1C)-c1c(c3c(n1C)C(=O)CCC3)C(=O)C2=O`, the TGI was determined as 1.29 µM in the assay with SK-MEL-2 melanoma; 0.524 µM in the assay on CCRF-CEM leukemia; 2.44 µM in the assay on DU-145 prostate; 0.397 µM with LOX IMVI melanoma; 1.48 µM in the assay on IGROV1 ovarian; 1.66 µM in the assay with ACHN renal. The TGI was 3.71 µM in the assay on SF-295 CNS, 2.94 µM with HOP-92 NSCLC, 2.72 µM in the assay with OVCAR-5 ovarian and 2.76 µM in the assay on UACC-257 melanoma.
`Cc1cc(N=Nc2c(O)ccc3ccccc23)ccc1N=Nc1cccc([N+](C)(C)C)c1`: the TGI was 47.3 µM in the assay with SK-MEL-2 melanoma; more than 34.3 µM with CCRF-CEM leukemia; 48.2 µM in the assay on DU-145 prostate; more than 40.3 µM in the assay with LOX IMVI melanoma; more than 22.2 µM in the assay on IGROV1 ovarian; more than 84.7 µM with ACHN renal. Further, the TGI in the assay on SF-295 CNS was 51.9 µM; in the assay on HOP-92 NSCLC, more than 100 µM; in the assay on OVCAR-5 ovarian it was 60.8 µM; with UACC-257 melanoma it was more than 63.5 µM.
As to `CCN(CC)CCNC(=O)c1ccc(I)cc1`, the TGI in the assay on SK-MEL-2 melanoma, in the assay on CCRF-CEM leukemia, in the assay on DU-145 prostate, in the assay with LOX IMVI melanoma, in the assay on IGROV1 ovarian and in the assay with ACHN renal was more than 100 µM each time. The TGI in the assay on SF-295 CNS, with HOP-92 NSCLC, in the assay with OVCAR-5 ovarian and with UACC-257 melanoma was more than 100 µM each time.
As for `Cn1c(-c2cccs2)cc(-c2cccs2)c1-c1ccco1`, the TGI in the assay with SK-MEL-2 melanoma is more than 100 µM; with CCRF-CEM leukemia it was more than 100 µM; with DU-145 prostate, more than 100 µM; in the assay on LOX IMVI melanoma, 62.9 µM; in the assay with IGROV1 ovarian, more than 100 µM; in the assay on ACHN renal it was more than 100 µM. Moreover, the TGI in the assay on SF-295 CNS, in the assay on HOP-92 NSCLC, with OVCAR-5 ovarian and in the assay with UACC-257 melanoma was more than 100 µM in each case.
For the molecule `CCOC(=O)c1sc(N/N=C2\NC(=O)/C(=C/c3ccc([N+](=O)[O-])cc3)S2)nc1C`, the TGI with SK-MEL-2 melanoma was found to be 81.3 µM; in the assay on CCRF-CEM leukemia, 35.4 µM; with DU-145 prostate, 47.4 µM; in the assay with LOX IMVI melanoma, 46.1 µM; in the assay with IGROV1 ovarian, 35.4 µM; in the assay with ACHN renal it was 58.3 µM. The TGI in the assay with SF-295 CNS was more than 100 µM; in the assay on HOP-92 NSCLC, 44.6 µM; in the assay on OVCAR-5 ovarian, more than 100 µM; in the assay on UACC-257 melanoma, 42.1 µM.
Turning to `COc1cc(C2SC(N)=Nc3c2c(C)nn3C(=O)c2ccccc2O)ccc1O` (configuration not stated), the TGI with SK-MEL-2 melanoma is more than 10 µM; in the assay on CCRF-CEM leukemia, more than 10 µM; with DU-145 prostate it was more than 10 µM; with LOX IMVI melanoma, more than 10 µM; in the assay with IGROV1 ovarian, more than 3.33 µM; with ACHN renal it was more than 10 µM. Also, the TGI in the assay with SF-295 CNS, in the assay with HOP-92 NSCLC, in the assay with OVCAR-5 ovarian and in the assay on UACC-257 melanoma was more than 10 µM throughout.
`[N-]=[N+]=Nc1c(C=O)c(=O)n(-c2ccccc2)c2ccccc12`: the TGI is 80.5 µM in the assay on SK-MEL-2 melanoma; 18.9 µM in the assay with CCRF-CEM leukemia; more than 100 µM with DU-145 prostate; 31.3 µM with LOX IMVI melanoma; 44.8 µM with IGROV1 ovarian; 40.7 µM with ACHN renal. Besides, the TGI is more than 100 µM with SF-295 CNS, 31.1 µM with HOP-92 NSCLC, more than 100 µM in the assay on OVCAR-5 ovarian and 50.1 µM with UACC-257 melanoma.
In the case of `CCCCSC1=N/C(=C\c2ccc(N(C)C)cc2)C(NN)=N1`, the TGI with SK-MEL-2 melanoma, in the assay with CCRF-CEM leukemia, in the assay on DU-145 prostate, in the assay on LOX IMVI melanoma, with IGROV1 ovarian and in the assay with ACHN renal was more than 100 µM each time. For the same molecule, the TGI in the assay on SF-295 CNS, in the assay with HOP-92 NSCLC, in the assay on OVCAR-5 ovarian and in the assay on UACC-257 melanoma was more than 100 µM throughout.
Take `O=C1NC(N2CCCCC2)=N/C1=C\c1cccs1`: the TGI in the assay on SK-MEL-2 melanoma, with CCRF-CEM leukemia, in the assay on DU-145 prostate, in the assay on LOX IMVI melanoma, in the assay with IGROV1 ovarian and with ACHN renal was more than 100 µM in each case. The TGI in the assay with SF-295 CNS, with HOP-92 NSCLC, in the assay with OVCAR-5 ovarian and in the assay with UACC-257 melanoma was more than 100 µM throughout.
`O=C(Cc1csc(N=Nc2c(O)[nH]c3ccccc23)n1)Nc1ccccc1`: the TGI with SK-MEL-2 melanoma is more than 100 µM; in the assay on DU-145 prostate, 91.5 µM; in the assay with LOX IMVI melanoma it was more than 100 µM; in the assay with IGROV1 ovarian it was 30.5 µM; with ACHN renal, 54.4 µM; in the assay with SF-295 CNS, more than 100 µM. Besides, the TGI was more than 100 µM in the assay with HOP-92 NSCLC, more than 100 µM with OVCAR-5 ovarian and 87.7 µM in the assay with UACC-257 melanoma.
For `CCOC(=O)Cc1csc2[n+]1C(=O)/C(=C/c1cccc(OC)c1O)S2`, the TGI in the assay on SK-MEL-2 melanoma, in the assay with DU-145 prostate, in the assay on LOX IMVI melanoma, in the assay with IGROV1 ovarian, in the assay on ACHN renal and in the assay with SF-295 CNS was more than 100 µM each time. In addition, the TGI in the assay with HOP-92 NSCLC, in the assay on OVCAR-5 ovarian and in the assay on UACC-257 melanoma was more than 100 µM throughout.
